By melting point is commonly meant the temperature, or range, at which the solid turns liquid. In turn, `C[C@H](NC(=O)Cc1cc(F)cc(F)c1)C(=O)NC1C(=O)N(C)Cc2ccccc21` (stereo partly drawn) [Example 5-14, 4-(N′-(3,5-Difluorophenylacetyl)-L-alaninyl)amino-2-methyl-1,2,3,4-tetrahydroisoquinolin-3-one] had a melting point of 174 to 175 °C. For `C[C@H](NC(=O)Cc1cc(F)cc(F)c1)C(=O)NC1C(=O)NCc2cc(-c3ccccc3)ccc21` (stereo partly drawn) [Example 5-16, 4-(N′-(3,5-Difluorophenylacetyl)-L-alaninyl)amino-7-phenyl-1,2,3,4-tetrahydroisoquinolin-3-one], the melting point is > 240 °C (dec.). Regarding `C[C@H](NC(=O)Cc1ccccc1)C(=O)NC1CCCNC(=O)C1` (stereo partly drawn) [Example 5-18, 3-(N′-(Phenylacetyl)-L-alaninyl)amino-ε-caprolactam], the melting point was 200 to 202 °C. The molecule `C[C@H](NC(=O)Cc1cc(F)cc(F)c1)C(=O)NC1CCCCCNC(=O)C1` (stereo partly drawn) [Example 5-33, 3-(N′-(3,5-Difluorophenylacetyl)-L-alaninyl)amino-8-octanelactam] showed a melting point of over 220 °C. The figure for `C[C@H](NC(=O)Cc1cc(F)cc(F)c1)C(=O)NC1C(=O)NCc2cc(Cc3ccccc3)ccc21` (stereo partly drawn) [Example 5-34, 4-(N′-(3,5-Difluorophenylacetyl)-L-alaninyl)amino-7-benzyl-1,2,3,4-tetrahydroisoquinolin-3-one] is 159 to 166 °C. Turning to `C[C@H](NC(=O)Cc1cc(F)cc(F)c1)C(=O)NC1C(=O)NC(Cc2ccccc2)c2ccccc21` (stereo partly drawn) [Example 5-35, 4-(N′-(3,5-Difluorophenylacetyl)-L-alaninyl)amino-1-benzyl-1,2,3,4-tetrahydroisoquinolin-3-one], the melting point was 106 to 107 °C. `C[C@H](NC(=O)Cc1cc(F)cc(F)c1)C(=O)NC1C(=O)NC(c2ccccn2)c2ccccc21` (stereo partly drawn) [Example 5-37, 4-(N′-(3,5-Difluorophenylacetyl)-L-alaninyl)amino-1-(pyrid-2-yl)-1,2,3,4-tetrahydroisoquinolin-3-one] displayed a melting point of 100 °C.

In turn, `C[C@H](NC(=O)Cc1cc(F)cc(F)c1)C(=O)NC1C(=O)NC(c2cccnc2)c2ccccc21` (stereo partly drawn) [Example 5-38, 4-(N′-(3,5-Difluorophenylacetyl)-L-alaninyl)amino-1-(pyrid-3-yl)-1,2,3,4-tetrahydroisoquinolin-3-one] returned a melting point of 100 to 120 °C. In the case of `C[C@H](NC(=O)Cc1cc(F)cc(F)c1)C(=O)NC1C(=O)NC(c2ccncc2)c2ccccc21` (stereo partly drawn) [Example 5-39, 4-(N′-(3,5-Difluorophenylacetyl)-L-alaninyl)amino-1-(pyrid-4-yl)-1,2,3,4-tetrahydroisoquinolin-3-one], the melting point was 100 °C. For the molecule `CC1CC(NC(=O)[C@H](C)NC(=O)Cc2cc(F)cc(F)c2)C(=O)N(C)c2ccccc21` (stereo partly drawn) [Example 6-8, 3-(N′-(3,5-Difluorophenylacetyl)-L-alaninyl)amino-1,5-dimethyl-1,3,4,5-tetrahydro-2H-1-benzazepin-2-one], the melting point lay in the range of 115 to 119 °C. The value for `CC1CC(NC(=O)Cc2cc(F)cc(F)c2)C(=O)N(C)c2ccccc21` (centres unmarked) [Example 6-9, 3-(3,5-Difluorophenylacetyl)amino-1,5-dimethyl-1,3,4,5-tetrahydro-2H-1-benzazepin-2-one] was 185 to 187 °C. As for `C[C@H](NC(=O)Cc1cc(F)cc(F)c1)C(=O)N[C@H]1COc2ccccc2N(C)C1=O` [Example 6-10, 3-(S)-(N′-(3,5-Difluorophenylacetyl)-L-alaninyl)amino-1-methyl-5-oxa-1,3,4,5-tetrahydro-2H-1-benzazepin-2-one], the melting point fell in the range of 110 to 114 °C. In turn, `CCN1C(=O)[C@@H](NC(=O)[C@H](C)NC(=O)Cc2cc(F)cc(F)c2)COc2ccccc21` [Example 6-11, 3-(S)-(N′-(3,5-Difluorophenylacetyl)-L-alaninyl)amino-1-ethyl-5-oxa-1,3,4,5-tetrahydro-2H-1-benzazepin-2-one] gave a melting point of 188 to 191 °C. The molecule `C[C@H](NC(=O)Cc1cc(F)cc(F)c1)C(=O)N[C@@H]1CSc2ccccc2N(C)C1=O` [Example 6-12, 3-(S)-(N′-(3,5-Difluorophenylacetyl)-L-alaninyl)amino-1-methyl-5-thia-1,3,4,5-tetrahydro-2H-1-benzazepin-2-one] displayed a melting point of 156 to 159 °C. In turn, `CC(C)N1C(=O)C(NC(=O)[C@H](C)NC(=O)Cc2cc(F)cc(F)c2)C(=O)N(C(C)C)c2ccccc21` [Example 8-146, 3-[N′-(3,5-Difluorophenylacetyl)-L-alaninyl]amino-2,4-dioxo-1,5-bis-(1-methylethyl)-2,3,4,5-tetrahydro-1H-1,5-benzodiazepine] gave a melting point of 232 to 233 °C. The value for `C[C@H](NC(=O)Cc1cc(F)cc(F)c1)C(=O)NC1C(=O)N(C)c2ccccc2N(C)C1=O` [Example 8-150, 3-[N′-(3,5-Difluorophenylacetyl)-L-alaninyl]amino-2,4-dioxo-1,5-bis-methyl-2,3,4,5-tetrahydro-1H-1,5-benzodiazepine] was 206 to 207 °C; that for `CC(C)CN1C(=O)C(NC(=O)[C@H](C)NC(=O)Cc2cc(F)cc(F)c2)C(=O)N(CC(C)C)c2ccccc21` [Example 8-152, 3-[N′-(3,5-Difluorophenylacetyl)-L-alaninyl]amino-2,4-dioxo-1,5-bis-(2-methylpropyl)-2,3,4,5-tetrahydro-1H-1,5-benzodiazepine] was 197 to 198 °C. Turning to `C[C@H](NC(=O)C(O)C1CCCC1)C(=O)NC1C(=O)N(CC(C)(C)C)c2ccccc2N(CC(C)(C)C)C1=O` (stereo partly drawn) [Example 8-162, 3-[N′-(Cyclopentyl-α-hydroxyacetyl)-L-alaninyl]amino-2,4-dioxo-1,5-bis-(2,2-dimethylpropyl)-2,3,4,5-tetrahydro-1H-1,5-benzodiazepine], the melting point lay in the range of 119 to 129 °C. `CCOC(=O)[C@H](C)NC(=O)Cc1cc(F)cc(F)c1` [Example B64, N-[(3,5-Difluorophenyl)acetyl]alanine Ethyl Ester] had a melting point of 93 to 95 °C. The molecule `CC(C)COC(=O)[C@H](C)NC(=O)CC1CCCCC1` [Example B70, N-(Cyclohexylacetyl)-L-alanine iso-Butyl Ester] registered a melting point of 92 to 93 °C.

`CC(C)COC(=O)[C@H](C)NC(=O)CC1CCCC1` [Example B71, N-(Cyclopentylacetyl)-L-alanine iso-Butyl Ester]: the melting point lay in the range of 62 to 64 °C. `CC(C)COC(=O)[C@H](C)NC(=O)CC1=CCCCC1` [Example B72, N-[(Cyclohex-1-enyl)acetyl]-L-alanine iso-Butyl Ester] had a melting point of 49 to 51 °C. In turn, `COC(=O)[C@@H](NC(=O)CC1CCCC1)c1ccccc1` [Example B77, N-(Cyclopentylacetyl)-L-phenylglycine Methyl Ester] gave a melting point of 83 to 86 °C.

The record behind these values is US6653303B1, “Cycloalkyl, lactam, lactone and related compounds, pharmaceutical compositions comprising same, and methods for inhibiting β-amyloid peptide release and/or its synthesis by use of such compounds” (Athena Neurosciences, Inc., priority 1996, dated 2003).
